Reference: patent EP0812839A1, “Irreversible HIV protease inhibitors, compositions containing same and process for the preparation thereof” (LG Chemical Limited, priority 1996, dated 1997)

Experiments:
HIV-1 protease = target: T1, HIV-1 protease (Human immunodeficiency virus type 1 group M subtype B, UniProt P04585); test: Assay for inhibitory effect on HIV protease (time-dependent inactivation, HPLC readout of oligopeptide substrate cleavage); format: biochemical; conditions: second order rate constant; 2.6nM HIV-1 protease; 50mM sodium acetate, pH 0.5; KINSIM/FITSIM program
T1 construct: addition of 2.6nM of HIV-1 protease
Protocol: The inhibitory effect on HIV protease of the compounds of the present invention was determined by the following method.
To a buffer solution comprising 50mM sodium acetate, pH 0.5, 1mM dithiothreitol(DTT), 1mM ethylenediamine-tetraacetate (EDTA), 0.75M ammonium sulfate and 0.1% NP 40(NONIGET P-40; Sigma Chemical Co., U.S.A.) was added a measured amount of a compound selected from Compound Nos. 1 to 12 to prepare a preincubation solution. Inhibition reaction was started with the addition of 2.6nM of HIV-1 protease to the preincubation solution. Each of 10µl sample of the reaction solution taken at a given time interval was added to 80µl of assay solution containing […] of reaction substrate in the same buffer solution as above to assay for the residual enzyme activity. In this context, an oligopeptide consisting of 11 amino acids, i.e., H-His-Lys-Ala-Arg-Val-Leu-Phe-(p-NO2)-(Glu-Ala-Ile-Ser-NH2), was used as a reaction substrate, which oligopeptide was to be cleaved in two by the breakage of amide bond between Leu and Phe-(P-NO2) upon the attack of HIV protease. The reaction rate was determined by subjecting the substrate before the reaction and the product after the reaction to HPLC separation and then measuring the relative amount of the product, using the strong absorbance of (p-NO2)-Phe at 280nm. The amounts of reduction in enzyme activity according to the elapsed time were measured and the natural logarithmic values(ln) of the measured amounts were plotted against time to obtain a linear graph and kobs was calculated from the slope of the linear graph.
The inhibition constant was calculated according to the following equation: (1)/(kobs)=(1)/(kina)+(KI)/(kina)(1)/([I]) [formula] wherein: kobs is a rate constant indicating the rate of reduction in enzyme activity according to the elapsed time under the presence of a given concentration of inhibitor, kina is a rate constant indicating the rate of chemical reaction forming covalent bond between an enzyme and an inhibitor in Michaelis-Menten complex, KI is an inhibition constant indicating the dissociation rate of Michaelis-Menten complex into an enzyme and an inhibitor, and [I] means the inhibitor concentration.
The above equation is applicable to an experiment carried out under the condition in which the concentration of inhibitor is far higher than that of enzyme (Steady State Kinetic). […] The inhibition constants KI and kina and second order rate constant kina/KI were obtained by inputting the value of [E]/([E]+[EI]+[EI']) into KINSIM/FITSIM program. In case that second order rate constant kina/KI is larger than 10^9, it is hard to calculate the exact values by KINSIM/FITSIM program [Williams, J.W. and Morrison, J.F., Methods, Enzymol., 63, 437-466([…]); and Zimmerle, C.T. and Frieden, C., J. Biochem., 258, 381-387(1989)].

HIV-1 = test: Anti-viral activity: syncytium formation (Sup T1) or reverse transcriptase assay (H9); format: cell-based; conditions: Human immunodeficiency virus 1, concentration that inhibits the proliferation of HIV by 50%, H9 or Sup T1 cell lines, 200 TCID50 of HIV-1
Protocol: The anti-viral activity of the compounds of the present invention was determined by measuring the concentration of the compounds that inhibits the proliferation of HIV by 50%(IC50) through a survey for syncytium formation or reverse transcriptase assay.
1 x 10^5 cells of each of H9(ATCC HTB 176) and Sup T1 cell lines were added to the wells of a 24-well microtiter plate and various concentrations of the compounds of the present invention were added thereto. 200 TCID50(200-fold of 50% tissue culture infection dose) of HIV-1 inoculum and rpmi-1640 medium(Sigma Chemical Co., U.S.A) were added successively to the wells and the plate was incubated at 37°C. In case of Sup T1, the number of syncytium formed was investigated after 3 to 9 days. IC50 of each compound was determined by measuring the concentration of inhibitor that can reduce the number of syncytium by 50% compared with those formed in the same condition without the inhibitor.
In case of H9, three-quarters(3/4) of the culture medium in volume was refreshed every 3 days; and after 9 days, 6ml of the culture fluid was taken and 2.5ml of 30% polyethyleneglycol(PEG, M.W. 6000-8000) and 0.4M NaCl were added thereto. The resulting solution was allowed to stand at 0°C overnight to precipitate virus particles. The solution was centrifuged at 2000rpm for 45 minutes, the supernatant was discarded therefrom and the precipitate was diluted with 20µl of a reverse transcriptase suspension buffer(50mM tris-HCl, pH 7.5, 1mM dithiothreitol, 20% glycerol, 0.25M KCl and 0.25% Triton X-100). The resulting suspension was stored in an Effendorf tube at -70°C until used. A procedure of freezing said virus suspension for 2 minutes in dry ice and thawing same at 37°C for 2 minutes was repeated three times and the resulting suspension was centrifuged at 4°C. The resulting supernatant was used in carrying out the reverse transcriptase assay.
10µl of the said viral suspension was added to a solution of: 10µl of buffer solution(250mM tris-HCl, pH 7.5, 37.5mM MgCl2, 0.25% triton X-100), 1.2µl of 200mM dithiothreitol, 5µl of 100µM oligo(dT)-poly(A)(Boeringer Manheim, 12-18 oligomer), 1µl(1µCi) of ^3H-TTP(Thymidinetri-phosphate) and 23.6µl of water; and the resulting mixture was placed at 37°C. After 1 hour, the mixture was poured onto a WHATMAN DEB1 filter and the filter was washed three times with 5ml of 2 x SSC buffer solution(17.53g of sodium chloride, 8.82g of sodium citrate, pH 7.0, 1 liter of water) for about 10 minutes each time and twice with 95% methanol for 10 seconds. The filter was put onto aluminum foil and dried with an infra-red lamp. The amount of radioactivity was counted using a liquid scintillation counter.

H9 cell or Sup T1 cell = test: Cytotoxicity by trypan blue dye exclusion; format: cell-based; conditions: concentration that causes death of cells by 50%, 0.1µM to 100µM tested
Protocol: The medium was refreshed every 3 days and the extent of cell proliferation was observed using Hemacytometer according to the trypan blue dye exclusion technique which is well known in the art. CT50(i.e., concentration that causes death of cells by 50%) was determined.

Row | SMILES | kina/KI (HIV-1 protease) | IC50 (HIV-1) [nM] | CT50 (H9 cell or Sup T1 cell) [µM]
1 | CC(C)[C@@H](Cc1ccccc1)NC(=O)OC[C@@H]1O[C@@H]1[C@H](Cc1ccccc1)NC(=O)[C@H](CC(N)=O)NC(=O)c1ccc2ccccc2n1 [Example 1, 4S-[N-(2-quinolinecarbonyl)-L-asparaginyl]amino-(3R,2S)-epoxy-5-phenylpentyl N-2R-(1-phenyl-3-methylbutyl) carbamate] | 10^9 - 10^10 min^-1M^-1 | 125 | >10
2 | CC(C)[C@H](NC(=O)OC[C@@H]1O[C@@H]1[C@H](Cc1ccccc1)NC(=O)[C@H](CC(N)=O)NC(=O)c1ccc2ccccc2n1)c1ccccc1 [Example 2] | 10^9 - 10^10 min^-1M^-1 | 130 | >10
3 | CC(C)C(NC(=O)OC[C@@H]1O[C@@H]1[C@H](Cc1ccccc1)NC(=O)[C@H](CC(N)=O)NC(=O)c1ccc2ccccc2n1)C(C)C [Example 3] | 10^9 - 10^10 min^-1M^-1 | 110 | >10
4 | CC(C)[C@@H](Cc1ccccc1)NC(=O)OC[C@@H]1O[C@@H]1[C@H](Cc1ccccc1)NC(=O)[C@@H](NC(=O)OCc1ccccc1)C(C)(C)S(C)(=O)=O [Example 4, 4S-[(N-benzyloxycarbonyl)-β-methanesulfonyl-L-valinyl]amino-(3R,2S)-epoxy-5-phenyl-1-pentyl N-2R-(1-phenyl-3-methylbutyl) carbamate] | 10^9 - 10^10 min^-1M^-1 | 15 | >10
5 | CC(C)[C@H](NC(=O)OC[C@@H]1O[C@@H]1[C@H](Cc1ccccc1)NC(=O)[C@@H](NC(=O)OCc1ccccc1)C(C)(C)S(C)(=O)=O)c1ccccc1 [Example 5] | 10^9 - 10^10 min^-1M^-1 | 50 | >10
6 | CC(C)C(NC(=O)OC[C@@H]1O[C@@H]1[C@H](Cc1ccccc1)NC(=O)[C@@H](NC(=O)OCc1ccccc1)C(C)(C)S(C)(=O)=O)C(C)C [Example 6] | 10^9 - 10^10 min^-1M^-1 | 50 | >10
7 | CC(C)[C@@H](Cc1ccccc1)NC(=O)OC[C@@H]1O[C@@H]1[C@H](Cc1ccccc1)NC(=O)[C@@H](NC(=O)c1ccc2ccccc2n1)C(C)(C)S(C)(=O)=O [Example 7, 4S-[N-(2-quinolinecarbonyl)-β-methanesulfony]-L-valinyl]amino-(3R,2S)-epoxy-5-pheny]-1-pentyl N-2S-(1-phenyl-3-methylbutyl) carbamate] | 10^9 - 10^10 min^-1M^-1 | 20 | >10
8 | CC(C)[C@H](NC(=O)OC[C@@H]1O[C@@H]1[C@H](Cc1ccccc1)NC(=O)[C@@H](NC(=O)c1ccc2ccccc2n1)C(C)(C)S(C)(=O)=O)c1ccccc1 [Example 8] | 10^9 - 10^10 min^-1M^-1 | 100 | >10
9 | CC(C)C(NC(=O)OC[C@@H]1O[C@@H]1[C@H](Cc1ccccc1)NC(=O)[C@@H](NC(=O)c1ccc2ccccc2n1)C(C)(C)S(C)(=O)=O)C(C)C [Example 9] | 10^9 - 10^10 min^-1M^-1 | 80 | >10
10 | CC(C)[C@@H](Cc1ccccc1)NC(=O)OC[C@@H]1O[C@@H]1[C@H](Cc1ccccc1)NC(=O)[C@@H](NC(=O)COc1cccc2cnccc12)C(C)(C)S(C)(=O)=O [Example 10, 4S-[N-(5-isoquinolinyloxymethylenecarbonyl)-β-methanesulfonyl-L-valinyl]amino-(3R,2S)-epoxy-5-phenyl-1-pentyl N-2R-(1-phenyl-3-methylbutyl) carbamate] | 10^9 - 10^10 min^-1M^-1 | 12 | >10
11 | CC(C)[C@H](NC(=O)OC[C@@H]1O[C@@H]1[C@H](Cc1ccccc1)NC(=O)[C@@H](NC(=O)COc1cccc2cnccc12)C(C)(C)S(C)(=O)=O)c1ccccc1 [Example 11] | 10^9 - 10^10 min^-1M^-1 | 15 | >10
12 | CC(C)C(NC(=O)OC[C@@H]1O[C@@H]1[C@H](Cc1ccccc1)NC(=O)[C@@H](NC(=O)COc1cccc2cnccc12)C(C)(C)S(C)(=O)=O)C(C)C [Example 12] | 10^9 - 10^10 min^-1M^-1 | 50 | >10
